Data reported in patent US20240383915A1, “OXAZEPINE COMPOUNDS AND USES THEREOF IN THE TREATMENT OF CANCER” (Genentech, Inc., priority 2021, published 2024).
Like-named read-outs stand apart in the source and are kept apart here.

Experiments:
[1] = target: KRas (Homo sapiens (Human), UniProt P01116); experiment: KRas GDP HTRF (BODIPY-GDP exchange TR-FRET); assay type: biochemical
Summary of the method: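 Inhibition of SOS1-mediated exchange of BODIPY-GDP on KRAS G12D, started with 3 nM recombinant human SOS1 and 300 nM BODIPY-GDP and read after 60 min. TR-FRET excitation 337 nm, ratio 520/490 nm ×10,000. IC50 from 4-parameter Hill fit of normalized data.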

[2] = target: KRas(G12V) (Homo sapiens (Human), UniProt P01116, G12V); experiment: KRas(G12V) GDP HTRF (BODIPY-GDP exchange TR-FRET); assay type: biochemical
[3] = system: PC-9 cells; experiment: PC9 proliferation assay; assay type: cell-based, human; conditions: read-out: PC9 Prolif IC50 (G12V)
[4] = system: SW480 cells; experiment: SW480 proliferation assay; assay type: cell-based; conditions: read-out: SW480 Prolif IC50 (G12V)

Chain of KRas (P01116-2 other isoform, or with tags, fused parts or gaps): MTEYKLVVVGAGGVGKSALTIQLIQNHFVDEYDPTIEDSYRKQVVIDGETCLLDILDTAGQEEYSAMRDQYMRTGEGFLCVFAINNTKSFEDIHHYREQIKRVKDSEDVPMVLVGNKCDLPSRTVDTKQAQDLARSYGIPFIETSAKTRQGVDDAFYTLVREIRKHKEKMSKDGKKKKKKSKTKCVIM
Chain of KRas(G12V) (P01116-2 other isoform, or with tags, fused parts or gaps G12V): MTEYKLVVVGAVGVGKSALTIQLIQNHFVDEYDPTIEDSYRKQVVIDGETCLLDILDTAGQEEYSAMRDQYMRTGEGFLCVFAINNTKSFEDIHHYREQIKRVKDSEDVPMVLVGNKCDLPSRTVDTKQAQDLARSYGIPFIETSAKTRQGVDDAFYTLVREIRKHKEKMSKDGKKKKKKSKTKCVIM

Row | IC50 [1] | IC50 [2] | IC50 ([3]; Homo sapiens, PC-9, PC9) | IC50 ([4]; Homo sapiens, SW480, SW480) | IC50 ([3]; PC9) | IC50 ([4]; SW480) | SMILES
1 | 0.15 nM | 0.13 nM | 6500 nM | 30 nM |  |  | CC(=O)N1CCN2[C@H](COc3nc4c5c(c(Cl)c(-c6nc(N)cc(C)c6C(F)(F)F)c(F)c5n3)OCCN4[C@H](C)c3cccnc3N)CC[C@H]2C1 (atropisomer, axis not shown; (aS)) [Example 123a, 1-((6S,8aS)-6-((((R)-9-(6-amino-4-methyl-3-(trifluoromethyl)pyridin-2-yl)-4-((R)-1-(2-aminopyridin-3-yl)ethyl)-8-chloro-10-fluoro-5,6-dihydro-4H-[1,4]oxazepino[5,6,7-de]quinazolin-2-yl)oxy)methyl)hexahydropyrrolo[1,2-a]pyrazin-2(1H)-yl)ethan-1-one]
2 | 0.218 nM | 0.12 nM | 3700 nM | 23 nM |  |  | Cc1cc(N)nc(-c2c(Cl)c3c4c(nc(OC[C@@H]5CC[C@H]6CN(S(C)(=O)=O)CCN56)nc4c2F)N([C@H](C)c2cccnc2N)CCO3)c1C(F)(F)F (atropisomer, axis not shown; (aS)) [Example 125a, 6-((R)-4-((R)-1-(2-aminopyridin-3-yl)ethyl)-8-chloro-10-fluoro-2-(((6S,8aS)-2-(methylsulfonyl)octahydropyrrolo[1,2-a]pyrazin-6-yl)methoxy)-5,6-dihydro-4H-[1,4]oxazepino[5,6,7-de]quinazolin-9-yl)-4-methyl-5-(trifluoromethyl)pyridin-2-amine]
3 | 11 nM | 1.8 nM | 3800 nM | 1000 nM |  |  | Cc1cc(N)nc(-c2c(Cl)c3c4c(nc(OC[C@@]56CCCN5C[C@H](F)C6)nc4c2F)N(C)CCO3)c1C(F)(F)F (single isomer, unassigned) [Example 41a]
4 | 0.25 nM | 0.3 nM |  |  | 1300 nM | 85 nM | Cc1cc(N)nc(-c2c(Cl)c3c4c(nc(OC[C@@]56CCCN5C[C@H](F)C6)nc4c2F)N(Cc2cccnc2N)CCO3)c1C(F)(F)F (single isomer, unassigned) [Example 42a]
5 | 82 nM | 55 nM |  |  | 7000 nM | 3400 nM | Cc1cc(N)nc(-c2c(Cl)c3c4c(nc(OC[C@@]56CCCN5C[C@H](F)C6)nc4c2F)N(Cc2cccnc2N)CCO3)c1C(F)(F)F (single isomer, unassigned) [Example 42b]
6 | 0.27 nM | 0.11 nM | 2300 nM | 2.6 nM |  |  | Cc1cc(N)c(F)c(-c2c(Cl)c3c4c(nc(OC[C@@]56CCCN5C[C@H](F)C6)nc4c2F)N([C@H](C)c2cccnc2N)CCO3)c1C(F)(F)F (single isomer, unassigned) [Example 73a]
7 | 0.21 nM | 0.09 nM | 2900 nM | 6 nM |  |  | Cc1cc(N)c(F)c(-c2c(Cl)c3c4c(nc(OC[C@@]56CCCN5C[C@H](F)C6)nc4c2F)N([C@H](C)c2cccnc2N)CCO3)c1I (single isomer, unassigned) [Example 74a]
8 | 0.23 nM | 0.08 nM | 7100 nM | 16 nM |  |  | C[C@H](c1cccnc1N)N1CCOc2c(Cl)c(-c3c(F)ccc4cnn(C)c34)c(F)c3nc(OC[C@@]45CCCN4C[C@H](F)C5)nc1c23 (single isomer, unassigned) [Example 105a]
9 | 46 nM | 9 nM | 18000 nM | 12000 nM |  |  | Cc1cc(N)nc(-c2cc3nc(OC[C@@]45CCCN4C[C@H](F)C5)nc4c3c(c2Cl)OCCN4Cc2ccn[nH]2)c1C(F)(F)F [Example 1, 6-(4-((1H-pyrazol-5-yl)methyl)-8-chloro-2-(((2R,7aS)-2-fluorotetrahydro-1H-pyrrolizin-7a(5H)-yl)methoxy)-5,6-dihydro-4H-[1,4]oxazepino[5,6,7-de]quinazolin-9-yl)-4-methyl-5-(trifluoromethyl)pyridin-2-amine]
10 | 25 nM | 11 nM | 7700 nM | 11000 nM |  |  | Cc1cc(N)nc(-c2cc3nc(OC[C@@]45CCCN4C[C@H](F)C5)nc4c3c(c2Cl)OCCN4Cc2cn[nH]c2)c1C(F)(F)F [Example 2, 6-(4-((1H-pyrazol-4-yl)methyl)-8-chloro-2-(((2R,7aS)-2-fluorotetrahydro-1H-pyrrolizin-7a(5H)-yl)methoxy)-5,6-dihydro-4H-[1,4]oxazepino[5,6,7-de]quinazolin-9-yl)-4-methyl-5-(trifluoromethyl)pyridin-2-amine]
11 | 9.2 nM | 1.5 nM | 9000 nM | 1500 nM |  |  | Cc1cc(N)nc(-c2cc3ncnc4c3c(c2Cl)OCCN4[C@H](C)c2cccnc2N)c1C(F)(F)F [Example 5, (R)-6-(4-(1-(2-aminopyridin-3-yl)ethyl)-8-chloro-5,6-dihydro-4H-[1,4]oxazepino[5,6,7-de]quinazolin-9-yl)-4-methyl-5-(trifluoromethyl)pyridin-2-amine]
12 | 52 nM | 6.1 nM | 17000 nM | 8700 nM |  |  | Cc1cc(N)nc(-c2cc3ncnc4c3c(c2Cl)OCCN4[C@H](C)c2cncc(N)c2)c1C(F)(F)F [Example 17, (R)-6-(4-(1-(5-aminopyridin-3-yl)ethyl)-8-chloro-5,6-dihydro-4H-[1,4]oxazepino[5,6,7-de]quinazolin-9-yl)-4-methyl-5-(trifluoromethyl)pyridin-2-amine]
13 | 200 nM | 35 nM | 20000 nM | 20000 nM |  |  | Cc1cc(N)nc(-c2cc3ncnc4c3c(c2Cl)OCCN4[C@@H](C)c2cccnc2N)c1C(F)(F)F [Example 18, (S)-6-(4-(1-(2-aminopyridin-3-yl)ethyl)-8-chloro-5,6-dihydro-4H-[1,4]oxazepino[5,6,7-de]quinazolin-9-yl)-4-methyl-5-(trifluoromethyl)pyridin-2-amine]
14 | 200000 nM | 15000 nM | 4500 nM | 5700 nM |  |  | Cc1cc(N)nc(-c2cc3ncnc4c3c(c2Cl)OC[C@H](CC#N)N4Cc2cccnc2N)c1C(F)(F)F [Example 19, (S)-2-(9-(6-amino-4-methyl-3-(trifluoromethyl)pyridin-2-yl)-4-((2-aminopyridin-3-yl)methyl)-8-chloro-5,6-dihydro-4H-[1,4]oxazepino[5,6,7-de]quinazolin-5-yl)acetonitrile]
15 | 510 nM | 69 nM | 8700 nM | 7300 nM |  |  | Cc1cc(N)nc(-c2cc3ncnc4c3c(c2Cl)OCCN4C(c2cccnc2N)C(F)(F)F)c1C(F)(F)F (stereo not shown) [Example 20, 6-(4-(1-(2-aminopyridin-3-yl)-2,2,2-trifluoroethyl)-8-chloro-5,6-dihydro-4H-[1,4]oxazepino[5,6,7-de]quinazolin-9-yl)-4-methyl-5-(trifluoromethyl)pyridin-2-amine]
16 | 29 nM | 5.1 nM | 10000 nM | 5100 nM |  |  | CN1CCOc2c(Cl)c(-c3cccc4sc(N)nc34)cc3nc(OC[C@@]45CCCN4C[C@H](F)C5)nc1c23 [Example 23, 4-(8-chloro-2-(((2R,7aS)-2-fluorotetrahydro-1H-pyrrolizin-7a(5H)-yl)methoxy)-4-methyl-5,6-dihydro-4H-[1,4]oxazepino[5,6,7-de]quinazolin-9-yl)benzo[d]thiazol-2-amine]
